Holding throughout (type): in vivo
The test system of assay [1] is Echinochloa crus-galli (ECHCG). As to the kind of experiment: Example A pre-emergence herbicidal activity, glasshouse pot test. Conditions: 480 h, evaluated 20 days after spraying, read-out: Pre-emergence activity ECHCG (100=total damage to plant; 0=no damage to plant); for pest or weed control at 250 g/ha: rate 250 g/ha; for pest or weed control at 500 g/ha: rate 500 g/ha. As for the experimental part:
(§1) Seeds of a variety of test species were sown in standard soil in pots. After cultivation for one day (pre-emergence) or after 10 days cultivation (post-emergence) under controlled conditions in a glasshouse, the plants were sprayed with an aqueous spray solution derived from the formulation of the technical active ingredient in 0.6 ml acetone and 45 ml formulation solution containing 10.6% Emulsogen EL (Registry number 61791-12-6), 42.2% N-methylpyrrolidone, 42.2% dipropylene glycol monomethyl ether (Registry number 34590-94-8) and 0.2% X-77 (Registry number 11097-66-8). The test plants were then grown in a greenhouse under optimum conditions until, 15 days later for post-emergence and 20 days for pre-emergence, the test was evaluated (100=total damage to plant; 0=no damage to plant).
(§2) Alopecurus myosuroides (ALOMY), Avena fatua (AVEFA), Lolium perenne (LOLPE), Setaria faberi (SETFA), Digitaria sanguinalis (DIGSA), Echinochloa crus-galli (ECHCG)

Assay [2] concerns Lolium perenne (LOLPE). The assay is described as above. The settings on record: 480 h, evaluated 20 days after spraying, read-out: Pre-emergence activity LOLPE (100=total damage to plant; 0=no damage to plant); for pest or weed control at 250 g/ha: rate 250 g/ha; for pest or weed control at 500 g/ha: rate 500 g/ha. As for the experimental part: as §1, §2
The subject of assay [3] is Avena fatua (AVEFA). Described as above. Conditions: 480 h, evaluated 20 days after spraying, read-out: Pre-emergence activity AVEFA (100=total damage to plant; 0=no damage to plant); for pest or weed control at 250 g/ha: rate 250 g/ha; for pest or weed control at 500 g/ha: rate 500 g/ha. Here is the method:
as §1, §2

In assay [4] the test system is Digitaria sanguinalis (DIGSA). Described as above. The settings on record: 480 h, evaluated 20 days after spraying, read-out: Pre-emergence activity DIGSA (100=total damage to plant; 0=no damage to plant); for pest or weed control at 250 g/ha: rate 250 g/ha; for pest or weed control at 500 g/ha: rate 500 g/ha. Here is the method: as §1, §2
Assay [5] concerns Setaria faberi (SETFA). The description is as above. Conditions: 480 h, evaluated 20 days after spraying, read-out: Pre-emergence activity SETFA (100=total damage to plant; 0=no damage to plant); for pest or weed control at 250 g/ha: rate 250 g/ha; for pest or weed control at 500 g/ha: rate 500 g/ha. Here is the method:
as §1, §2

In assay [6] the test system is Alopecurus myosuroides (ALOMY). Described as above. The settings on record: 480 h, evaluated 20 days after spraying, read-out: Pre-emergence activity ALOMY (100=total damage to plant; 0=no damage to plant); for pest or weed control at 250 g/ha: rate 250 g/ha; for pest or weed control at 500 g/ha: rate 500 g/ha. As for the experimental part:
as §1, §2

The subject of assay [7] is Echinochloa crus-galli (ECHCG). Put plainly: Example A post-emergence herbicidal activity, glasshouse pot test. The settings on record: 360 h, rate 125 g/ha, evaluated 15 days after spraying, read-out: Post-emergence activity ECHCG (100=total damage to plant; 0=no damage to plant). Here is the method: as §1, §2
Assay [8] concerns Lolium perenne (LOLPE). The assay is described as above. The settings on record: 360 h, rate 125 g/ha, evaluated 15 days after spraying, read-out: Post-emergence activity LOLPE (100=total damage to plant; 0=no damage to plant). As for the experimental part: as §1, §2
Assay [9] concerns Avena fatua (AVEFA). The assay is described as above. Conditions: 360 h, rate 125 g/ha, evaluated 15 days after spraying, read-out: Post-emergence activity AVEFA (100=total damage to plant; 0=no damage to plant). Here is the method: as §1, §2
Assay [10] has as its system Digitaria sanguinalis (DIGSA). The description is as above. Conditions: 360 h, rate 125 g/ha, evaluated 15 days after spraying, read-out: Post-emergence activity DIGSA (100=total damage to plant; 0=no damage to plant). Here is the method:
as §1, §2

The subject of assay [11] is Setaria faberi (SETFA). Described as above. The settings on record: 360 h, rate 125 g/ha, evaluated 15 days after spraying, read-out: Post-emergence activity SETFA (100=total damage to plant; 0=no damage to plant). Here is the method:
as §1, §2

Assay [12] has as its system Alopecurus myosuroides (ALOMY). The description is as above. The settings on record: 360 h, rate 125 g/ha, evaluated 15 days after spraying, read-out: Post-emergence activity ALOMY (100=total damage to plant; 0=no damage to plant). Here is the method: as §1, §2

`Cc1ccc(-c2ccc(Cl)c(C(F)(F)F)c2)cc1C1=C(O)C(C)(C)OC(C)(C)C1=O` [Compound A-52]: the pest or weed control at 250 g/ha in assay [1] was 70%; in assay [2], 10%; in assay [3], 0%; in [4], 100%; in assay [5], 80%; in assay [6], 0%. Further, the pest or weed control at 125 g/ha in assay [7] was 90%; in [8] it was 30%; in assay [9] it was 70%; in assay [10], 70%; in [11], 60%; in assay [12], 90%.

For `Cc1ccc(-c2ccc(Cl)cc2C)cc1C1=C(O)C(C)(C)OC(C)(C)C1=O` [Compound A-51], the pest or weed control at 250 g/ha in assay [1] is 50%; in [2] it was 40%; in [3], 0%; in [4], 50%; in assay [5], 10%; in assay [6], 0%. Moreover, the pest or weed control at 125 g/ha in assay [7] is 80%; in assay [8] it was 0%; in assay [9], 20%; in assay [10] it was 60%; in assay [11], 40%; in [12], 10%.

As to `CCc1ccc(-c2ccc(Cl)c(C)c2)cc1C1=C(O)C(C)(C)OC(C)(C)C1=O` [Compound A-44], the pest or weed control at 250 g/ha in [1] came to 70%; in assay [2] it was 80%; in [3], 20%; in assay [4], 100%; in assay [5], 50%; in assay [6] it was 60%. The pest or weed control at 125 g/ha in assay [7] came to 100%; in assay [8], 60%; in [9], 60%; in assay [10] it was 70%; in [11] it was 30%; in assay [12], 40%.

Consider `CCc1ccc(-c2ccc(Cl)c(Cl)c2)cc1C1=C(O)C(C)(C)OC(C)(C)C1=O` [Compound A-42], for which the pest or weed control at 250 g/ha came to 80% in assay [1]; 50% in assay [2]; 30% in assay [3]; 100% in [4]; 100% in [5]; 100% in assay [6]. For the same compound, the pest or weed control at 125 g/ha in assay [7] stood at 100%; in assay [8], 70%; in [9], 90%; in assay [10] it was 100%; in assay [11], 100%; in assay [12], 80%.

In the case of `CCc1ccc(-c2ccc(Cl)cc2)cc1C1=C(O)C2(CCCC2)OCC1=O` [Compound A-36], the pest or weed control at 250 g/ha came to 100% in [1]; 80% in [2]; 60% in assay [3]; 100% in [4]; 90% in [5]; 60% in assay [6]. The pest or weed control at 125 g/ha in assay [7] stood at 70%; in [8] it was 70%; in assay [9], 0%; in assay [10], 70%; in [11], 60%; in assay [12] it was 40%.

`Cc1ccc(-c2ccc(Cl)cc2)cc1C1=C(O)COCC1=O` [Compound A-3]: the pest or weed control at 500 g/ha turned out to be 70% in [1]; 20% in [2]; 20% in assay [3]; 70% in assay [4]; 50% in [5]; 30% in assay [6]. Also, the pest or weed control at 125 g/ha turned out to be 70% in assay [7]; 0% in [8]; 0% in assay [9]; 40% in assay [10]; 60% in assay [11]; 0% in [12].

Consider `CCc1ccc(-c2ccc(Cl)cc2Cl)cc1C1=C(O)C(C)(C)OC(C)(C)C1=O` [Compound A-45], for which the pest or weed control at 250 g/ha in assay [1] stood at 70%; in assay [2], 80%; in [3], 50%; in assay [4] it was 100%; in [5] it was 90%; in [6], 50%. Moreover, the pest or weed control at 125 g/ha in [7] worked out at 100%; in assay [8], 70%; in assay [9] it was 70%; in assay [10] it was 100%; in assay [11], 80%; in [12], 20%.

Turning to `Cc1ccc(-c2ccc(Cl)c(F)c2)cc1C1=C(O)C(C)(C)OC(C)(C)C1=O` [Compound A-47], the pest or weed control at 250 g/ha was 70% in [1]; 30% in assay [2]; 20% in assay [3]; 70% in [4]; 60% in [5]; 30% in assay [6]. Further, the pest or weed control at 125 g/ha in assay [7] was 100%; in assay [8], 70%; in assay [9], 90%; in assay [10] it was 80%; in [11] it was 50%; in [12], 90%.

`Cc1ccc(-c2ccc(Cl)cc2)cc1C1=C(O)COC(C)(C)C1=O` (single isomer, unassigned) [Compound A-1]: the pest or weed control at 500 g/ha worked out at 50% in [1]; 10% in assay [2]; 10% in assay [3]; 70% in [4]; 70% in assay [5]; 40% in [6]. For the same compound, the pest or weed control at 125 g/ha turned out to be 70% in assay [7]; 80% in [8]; 0% in [9]; 0% in assay [10]; 50% in [11]; 10% in assay [12].

The values are drawn from US8680012B2, “4-phenyl-pyrane-3,5-diones,4-phenyl-thiopyrane-3,6-diones and cyclohexanetriones as novel herbicides” (Syngenta Crop Protection LLC, priority 2006, dated 2014).
